One series is described as follows: in vitro. Conditions: human, uninfected MT-4 cells, CC50 (nM), same protocol as Test A, CellTiter-Glo. The essentials: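 Cytoprotection read-out: CellTiter-Glo chemiluminescence after 5 days at 37 °C of HIV-IIIb-infected MT-4 cells (m.o.i. 0.003) with compound in 10-point 3-fold dilutions, quadruplicate, 10% FBS. Cytotoxicity (CC50) measured identically without virus.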

The next series relates to HIV-IIIb. As to the kind of experiment: Test A: Antiviral assay in MT4 cells. As to conditions: Human immunodeficiency virus 1, IIIB, MT4, 120 h, read-out: % inhibition at 2 μM, percent inhibition of virus-induced cell killing, from dose response curve at 2 uM drug; MT-4 cells infected with HIV-IIIb, 5 days, CellTiter-Glo. In kind it is cell-based, HIV-1.

`CCc1c(-c2ccccc2)c(C(F)(F)F)nn1CC(=O)N[C@@H](Cc1cc(F)cc(F)c1)c1ncccc1-c1ccc(F)c(C(N)=O)c1` [Example 290, (S)-5-(2-(2-(3,5-difluorophenyl)-1-(2-(5-ethyl-4-phenyl-3-(trifluoromethyl)-1H-pyrazol-1-yl)acetamido)ethyl)pyridin-3-yl)-2-fluorobenzamide]: the CC50 at 5 days in the series “in vitro” came out at 11500 nM. Also, the inhibition at 2 µM in the series on HIV-IIIb stood at 4%.
In the series “in vitro”, `Cc1c(C2CC2)c(C(F)(F)F)nn1CC(=O)N[C@@H](Cc1cc(F)cc(F)c1)c1ncccc1-c1ccc(F)c(C(N)=O)c1` [Example 291, (S)-5-(2-(1-(2-(4-cyclopropyl-5-methyl-3-(trifluoromethyl)-1H-pyrazol-1-yl)acetamido)-2-(3,5-difluorophenyl)ethyl)pyridin-3-yl)-2-fluorobenzamide] registered a CC50 at 5 days of 16500 nM. Moreover, the inhibition at 2 µM with HIV-IIIb was found to be 86%.
Compound `NC(=O)c1cc(-c2cccnc2[C@H](Cc2cc(F)cc(F)c2)NC(=O)Cn2cc(CO)c(C(F)(F)F)n2)ccc1F` [Example 292, (S)-5-(2-(2-(3,5-difluorophenyl)-1-(2-(4-(hydroxymethyl)-3-(trifluoromethyl)-1H-pyrazol-1-yl)acetamido)ethyl)pyridin-3-yl)-2-fluorobenzamide] showed a CC50 at 5 days in “in vitro” greater than 53200 nM. Moreover, the inhibition at 2 µM in the series on HIV-IIIb stood at 1%.
On the same counts, the results for `O=C(Cc1c[nH]c2ccc(F)cc12)N[C@H](Cc1cc(F)cc(F)c1)c1ncncc1-c1ccc(Cl)cc1` [Example 293, (R)—N-(1-(5-(4-chlorophenyl)pyrimidin-4-yl)-2-(3,5-difluorophenyl)ethyl)-2-(5-fluoro-1H-indol-3-yl)acetamide] are 11200 nM and 44%.
The compound `NC(=O)c1cc(-c2cccnc2[C@H](Cc2cc(F)cc(F)c2)NC(=O)Cc2c[nH]c3ccc(F)cc23)ccn1` [Example 294, (S)-2-(2-(3,5-difluorophenyl)-1-(2-(5-fluoro-1H-indol-3-yl)acetamido)ethyl)-3,4′-bipyridine-2′-carboxamide] displayed a CC50 at 5 days in the series “in vitro” of 20500 nM. For the same compound, the inhibition at 2 µM in the series with HIV-IIIb came out at 114%.
In the same order, the values of `NS(=O)(=O)c1cccc(-c2cncnc2[C@H](Cc2cc(F)cc(F)c2)NC(=O)Cc2c[nH]c3ccc(O)cc23)c1` [Example 295B, (S)—N-(2-(3,5-difluorophenyl)-1-(5-(3-sulfamoylphenyl)pyrimidin-4-yl)ethyl)-2-(5-hydroxy-1H-indol-3-yl)acetamide] are greater than 53200 nM and 99%.
Turning to `NC(=O)c1cc(-c2cccnc2[C@H](Cc2cc(F)cc(F)c2)NC(=O)Cn2cc(C=O)c(C(F)(F)F)n2)ccc1F` [Example 296, (S)-5-(2-(2-(3,5-difluorophenyl)-1-(2-(4-formyl-3-(trifluoromethyl)-1H-pyrazol-1-yl)acetamido)ethyl)pyridin-3-yl)-2-fluorobenzamide], it took 10800 nM to reach half-maximal cytotoxicity in “in vitro” (CC50 at 5 days). Besides, in the series on HIV-IIIb, the inhibition at 2 µM was 96%.
Turning to `C=Cc1cn(CC(=O)N[C@@H](Cc2cc(F)cc(F)c2)c2ncccc2-c2ccc(F)c(C(N)=O)c2)nc1C(F)(F)F` [Example 297, (S)-5-(2-(2-(3,5-difluorophenyl)-1-(2-(3-(trifluoromethyl)-4-vinyl-1H-pyrazol-1-yl)acetamido)ethyl)pyridin-3-yl)-2-fluorobenzamide], it took 23300 nM to reach half-maximal cytotoxicity in the series “in vitro” (CC50 at 5 days). Further, in the series with HIV-IIIb, the inhibition at 2 µM worked out at 14%.
In the same order, the values of `NC(=O)c1cccc(-c2cccnc2[C@H](Cc2cc(F)cc(F)c2)NC(=O)Cn2ccc3ccc(=O)[nH]c32)c1` [Example 298C, (S)-3-(2-(2-(3,5-difluorophenyl)-1-(2-(6-oxo-6,7-dihydro-1H-pyrrolo[2,3-b]pyridin-1-yl)acetamido)ethyl)pyridin-3-yl)benzamide] are greater than 53000 nM and 61%.
`O=C(Cn1nc(C(F)F)c2c1C1CC1CC2)NC(Cc1cc(F)cc(F)c1)c1ncncc1-c1cnc2[nH]ccc2c1` (stereo not shown) [Example 299D, N-(1-(5-(1H-pyrrolo[2,3-b]pyridin-5-yl)pyrimidin-4-yl)-2-(3,5-difluorophenyl)ethyl)-2-(3-(difluoromethyl)-5,5a,6,6a-tetrahydrocyclopropa[g]indazol-1(4H)-yl)acetamide] yielded a CC50 at 5 days in the series “in vitro” of 19500 nM. The inhibition at 2 µM in the series on HIV-IIIb came out at 100%.
For the compound `CN(C)Cc1cn(CC(=O)N[C@@H](Cc2cc(F)cc(F)c2)c2ncccc2-c2ccc(F)c(C(N)=O)c2)nc1C(F)(F)F` [Example 300, (S)-5-(2-(2-(3,5-difluorophenyl)-1-(2-(4-((dimethylamino)methyl)-3-(trifluoromethyl)-1H-pyrazol-1-yl)acetamido)ethyl)pyridin-3-yl)-2-fluorobenzamide], the CC50 at 5 days in “in vitro” was greater than 53200 nM. The inhibition at 2 µM with HIV-IIIb was 0%.
Compound `O=C(Cn1nc(C(F)(F)F)c2c1CCCC2)N[C@@H](Cc1cc(F)cc(F)c1)c1nc[nH]c(=O)c1-c1ccc(Cl)cc1` [Example 301B, (S)—N-(1-(5-(4-chlorophenyl)-6-oxo-1,6-dihydropyrimidin-4-yl)-2-(3,5-difluorophenyl)ethyl)-2-(3-(trifluoromethyl)-4,5,6,7-tetrahydro-1H-indazol-1-yl)acetamide] had a CC50 at 5 days in “in vitro” of 5650 nM. The inhibition at 2 µM in the series with HIV-IIIb was found to be 0%.
On the same counts, the results for `O=C(Cc1c[nH]c2ccc(F)cc12)N[C@@H](Cc1cc(F)cc(F)c1)c1ncccc1-c1ccnc(-c2nn[nH]n2)c1` [Example 302, (S)—N-(1-(2′-(2H-tetrazol-5-yl)-3,4′-bipyridin-2-yl)-2-(3,5-difluorophenyl)ethyl)-2-(5-fluoro-1H-indol-3-yl)acetamide] are 16800 nM and 0%.
`NC(=O)c1cc(-c2cccnc2[C@H](Cc2cc(F)cc(F)c2)NC(=O)Cn2nc(C(F)(F)F)c3c2CCNC3)ccc1F` [Example 303, (S)-5-(2-(2-(3,5-difluorophenyl)-1-(2-(3-(trifluoromethyl)-4,5,6,7-tetrahydro-1H-pyrazolo[4,3-c]pyridin-1-yl)acetamido)ethyl)pyridin-3-yl)-2-fluorobenzamide] returned a CC50 at 5 days in the series “in vitro” of 35500 nM. For the same compound, the inhibition at 2 µM in the series with HIV-IIIb was found to be 14%.
For `NC(=O)c1cc(-c2cccnc2[C@H](Cc2cc(F)cc(F)c2)NC(=O)Cn2nc(C(F)F)c3c2C2CC2CC3(F)F)ccc1F` (stereo partly drawn) [Example 304C, 5-(2-((1S)-1-(2-(3-(difluoromethyl)-4,4-difluoro-5,5a,6,6a-tetrahydrocyclopropa[g]indazol-1(4H)-yl)acetamido)-2-(3,5-difluorophenyl)ethyl)pyridin-3-yl)-2-fluorobenzamide], the cytotoxic concentration (CC50) at 5 days in “in vitro” is 1700 nM. For the same compound, in the series with HIV-IIIb, the inhibition at 2 µM came out at 94%.
In the same order, the values of `NC(=O)c1cc(-c2cccnc2[C@H](Cc2cc(F)cc(F)c2)NC(=O)Cn2cc(CN3CCOCC3)c(C(F)(F)F)n2)ccc1F` [Example 305, (S)-5-(2-(2-(3,5-difluorophenyl)-1-(2-(4-(morpholinomethyl)-3-(trifluoromethyl)-1H-pyrazol-1-yl)acetamido)ethyl)pyridin-3-yl)-2-fluorobenzamide] are greater than 53200 nM and 0%.
Consider `Cc1nn(CC(=O)N[C@@H](Cc2cc(F)cc(F)c2)c2ncccc2-c2cccc(C(N)=O)c2)c2cc(O)ccc12` [Example 306C, (S)-3-(2-(2-(3,5-difluorophenyl)-1-(2-(6-hydroxy-3-methyl-1H-indazol-1-yl)acetamido)ethyl)pyridin-3-yl)benzamide], for which the CC50 at 5 days in the series “in vitro” came out at 41600 nM. Moreover, the inhibition at 2 µM with HIV-IIIb was 10%.

Values taken from patent publication US9540343B2 (Gilead Sciences, Inc., priority 2011, dated 2017).
